Experimental data reported in patent US8383136B2, “Micelle encapsulation of therapeutic agents” (Wisconsin Alumni Research Foundation, priority 2009, dated 2013).
≈ marks a conversion by molar mass, not a printed value. Where “and” joins values, the source holds several entries; their conditions need not be identical. Equal entries are not always repeated. Where two headings read alike, the source gives them in different places.

How the values were obtained:
[1] = % drug loading of PEG-b-PLA micelles (wt drug(s)/wt polymer); type: physicochemical; details: all drugs of the SDM or MDM together, PEG-b-PLA (4.2K:1.9K) micelles
Procedure: Drug(s) to polymer w/w percent was calculated for SDM and MDM. PEG-b-PLA micelles were freeze dried, weighed and the amount of drug(s) in the freeze dried sample was quantified by HPLC. The drug w/w percent was calculated as the mass of the drug(s) to the mass of polymer in the freeze dried sample multiplied by 100.

[2] = Dynamic light scattering size of SDM and MDM; type: physicochemical; details: DLS, drug-loaded SDM or MDM
Procedure: The drug-loaded micellar solutions were diluted 20 times with DD H2O and the samples was equilibrated for 2 min at 25° C. before the measurements. […] The hydrodynamic diameter of PEG-b-PLA micelles was calculated based on the Stokes-Einstein equation. Correlation function was curve fitted by cumulant method to calculate mean size and polydispersion index (PDI). All measurements were repeated three times, and volume-weighted particle sizes were presented as the average diameter with standard deviation.

[3] = Physical stability / drug loss from PEG-b-PLA micelles after 24 hours (turbidity, HPLC); type: physicochemical; details: for initial drug level in water / drug level @ 24 hr in water / % w/w drug(s) left @ 24 hr: PEG-b-PLA micelles; for drug precipitated at 24 hours: SDM, HPLC data; for time the micelles were physically stable: turbidity, ambient temperature
Procedure: Turbidity measurements were used to evaluate the physical stability of drug-loaded PEG-b-PLA micelles. A CARY 50 BIO UV-Visible spectrophotometer equipped with dip probe was used to measure turbidity. Micellar solutions were diluted six times, for a final concentration of PEG-b-PLA of 5 mg/mL, with DD H2O and filtered through 0.45 μm filter. […] Each measurement was performed in triplicate.

[4] = In vitro drug release from PEG-b-PLA micelles (dialysis method); type: physicochemical; details: 12.5 mM PBS, pH=7.4, 37° C.
Procedure: (§1) SDMs or MDMs were prepared and characterized as described above. Post micelle preparation each sample was diluted with DD H2O, to yield about 0.10 mg/mL of each drug. A volume of 2.5 mL of the prepared sample was loaded into a 3 mL Slide-A-Lyzer® (Thermo Scientific Inc.) dialysis cassette with a MWCO of 20,000 g/mol. Four cassettes were used in each experiment. The cassettes were placed in 2.0 L of buffer which was changed every 3 hours to ensure sink conditions for drug(s) and polymer. A sample of 100 μL was drawn from each cassette at various sampling time intervals and then replaced with 100 μL of fresh buffer. […] The amount of drug(s) in each sample was quantified by HPLC as described above.
Statistical analysis was performed using one-way ANOVA at 5% significance level combined with Tukey's Multiple Comparison Test or t-test at 5% significance level. Curve-fitting analysis using one phase exponential association was used to calculate the half-life (t1/2) of drug in in vitro drug release experiments. Both analyses were performed using GraphPad Prism version 5.00 for Windows, Graph-Pad Software, San Diego Calif. USA, www.graphpad.com.
as §1, with “Post-micelle preparation,” for “Post micelle preparation”, “yield samples of” for “yield”, “reverse phase HPLC.” for “HPLC as described above.”

[5] = tested on: A549 human non-small cell lung cancer cells; assay: In vitro cytotoxicity, resazurin assay, and combination index; type: cell-based; details: drug(s) in SDM or MDM, 72 hours, unit inferred
Procedure: (§2) MCF-7 human breast cancer cells were cultured in DMEM medium while 4T1 murine breast cancer cells, A549 human non-small cell lung cancer cells, and LS180 human colon cancer cells were cultured in RPMI1640 medium. Both media were supplemented with 10% fetal bovine serum (FBS) with antibiotics under 5% CO2 and 37° C. in an incubator. […] Free drugs were dissolved in DMSO, and drug-loaded PEG-b-PLA micelles were in deionized water. The samples were diluted with cell culture media to make 0.10, 1.0, 10, 100 and 1000 nM in 96 well plates. […] The metabolic conversion of resazurin dye by each viable cancer cell was quantified using a fluorescence cell plate reader (SpectraMax M2, Molecular Devices, USA) to estimate cell viability. […] IC50 values of free drugs and drug-loaded PEG-b-PLA micelles were calculated based on median-effect equation using Compusyn software (ver. 1.0).
(§3) CI values were obtained at IC50 values for 2- or 3-drug combinations. CI<1, C=1, and CI>1 were used as criteria to determine whether 2- or 3-drug combinations are synergistic, additive, and antagonistic, respectively (FIGS. 13-20).

[6] = tested on: MCF-7 human breast cancer cells; assay: as above; type: cell-based; details: MCF-7, drug(s) in SDM or MDM (PEG-b-PLA micelles), 72 hours, nM printed in b258 only, PTX/17-AAG 3.2:1, RAP/17-AAG 1:1, RAP/PTX 1:1, RAP/PTX/17-AAG 1:5:1
Procedure: as §2, §3

[7] = tested on: 4T1 murine breast cancer cells; assay: as above; type: cell-based; details: drug(s) in SDM or MDM, 72 hours, unit inferred
Procedure: as §2, with “The samples were diluted with cell culture media to make 0.10, 1.0, 10, 100 and 1000 nM in 96 well plates.” left out
as §3

physchem = type: physicochemical
Procedure: The mixture is mixed and sonicated for five minutes. The solvent is then removed by rotoevaporation at approximately 60° C. to provide a film. Hot (˜60° C.) deionized water is added to the oil and the solution is allowed to cool to ˜23° C. The solution is then centrifuged to remove the sediment in a 1.5 mL microtube, at ˜13,200 rpm for 1 minute. The supernatant is collected and filtered through a 0.2 μm PTFE filter.
The resulting solution was dialyzed against H2O in 3500 MWCO tubing (SpectraPor). Resulting micelles were centrifuged at 5000g's for 10 minutes to precipitate unincorporated drug. […] Micelle solutions were concentrated by rotary evaporation under reduced pressure at room temperature, followed by centrifugation (5000g's for 10 minutes).

[8] = type: in vivo, rats; details: micelle formulation compared to the standard vehicle that employs CrEL
[9] = dogs; cited from earlier work
[10] = Drug solubilization by PEG-b-PLA micelles (drug level in water, reverse phase HPLC); details: SDM or MDM, PEG-b-PLA (4.2K:1.9K) micelles
Procedure: The drug-polymer mixture was dissolved in 0.50 mL acetonitrile (ACN). The ACN was removed at 60° C. under reduced pressure on a rotary evaporator resulting in the formation of a homogenous film, The drug-polymer film was rehydrated with 0.50 mL of DD H2O at 60° C. with gentle agitation resulting in a clear solution of drug-loaded PEG-b-PLA micelles. The micellar solution was filtered using a 0.45 μm filter, and the micelles were characterized in terms of size and loading by Dynamic Light Scattering (DLS) and HPLC respectively.
MDMS were prepared similarly to the SDMs by mixing 2.0 mg of each drug with 15 mg of the polymer. The procedure for the preparation and characterization of these micelles was identical to the SDMs.
The content of drug loaded in PEG-b-PLA micelles was quantified by reverse phase HPLC. The HPLC system used for quantifying was a Shimadzu prominence HPLC system (Shimadzu, JP), consisting of a LC-20AT pump, SIL-20AC HT autosampler, CTO-20AC column oven and a SPD-M20A diode array detector. A sample of 10 μL was injected into a Zorbax SB-C8 Rapid Resolution cartridge (4.6×75 mm, 3.5 micron, Agilent). The column temperature was maintained at 40° C. throughout the run. Two HPLC methods were developed to quantify the amount of the drug(s) loaded in PEG-b-PLA micelles.
The mobile phase was an isocratic mixture of 45% ACN and 54% aqueous phase containing 0.1% phosphoric acid and 1% methanol in DD H2O.
The mobile phase was a gradient mixture of ACN and aqueous phase containing 0.1% phosphoric acid and 1% methanol in DD H2O. […] With both HPLC methods samples were injected twice and reproducible and rapid separation of the drugs was achieved.
Mn of PEG and PLA of PEG-b-PLA was 4,200 and 1,900 g/mol, respectively (APC Inc., UK). ACN was removed by heating at 60° C. and reduced pressure. The resultant dry polymer film containing anti-cancer agent(s) was dissolved by addition of water (0.50 mL) at 60° C. with gentle agitation.
The resultant dry PEG-b-PLA film containing drugs was dissolved by the addition of water (0.50 mL) at 60° C. with gentle agitation.

[11] = drug without micelles; cited from earlier work
[12] = tested on: pediatric acute lymphoblastic leukemia cell lines; details: combination of 17-AAG and ETO, four cell lines; cited from earlier work
[13] = Solubilization with Poloxamer F68 (reference example); type: physicochemical; details: analyte rapamycin
Description: Several polymers that form micelles with drugs were surveyed for solubilizing a paclitaxel-rapamycin-17-AAG drug combination. […] For example, the PEG-PPG-PEG triblock polymer Poloxamer F68 is useful to solubilize many hydrophobic compounds such as resveratrol, a hydrophobic compound with reported anticancer activity. […] In these attempts, the micelles coagulated and deteriorated in aqueous solutions.
Results for forming micelles of the paclitaxel-rapamcyin-17-AAG combination with Poloxamer F68: […]

[14] = PTX/17-AAG 4.7:1, RAP/17-AAG 1:1, RAP/PTX 1:1, RAP/PTX/17-AAG 1:5:1
[15] = PTX/17-AAG 4.7:1, RAP/17-AAG 1:1, RAP/PTX 1:1, RAP/PTX/17-AAG 1:5:1, read-out: IC50

C=CCNC1=C2C[C@@H](C)C[C@H](OC)[C@H](O)[C@@H](C)/C=C(\C)[C@H](OC(N)=O)[C@@H](OC)/C=C\C=C(/C)C(=O)NC(=CC1=O)C2=O [17-AAG, 17-allylamino-17-demethoxygeldanamycin]
% drug loading (wt. drug(s)/wt. polymer) [1]: 13.0 ± 0.9% and 11.3 ± 0.3% | PEG-b-PLA micelle diameter [2]: 39.3 ± 2.9 nm | initial drug level in water ([3]; analyte 17-AAG): 3.90 ± 0.28 mg/mL | drug level @ 24 hr in water ([3]; analyte 17-AAG): 3840 ± 180 µg/mL | first-order rate constant ([4]; release of 17-AAG): 0.525 h⁻¹ | IC50 [5, 14]: 771 ± 163 nM | IC50 [6]: 266 ± 48 nM | IC50 [7, 14]: 118 ± 10 nM | 17-AAG solubilized (physchem; PEG-PLA (12:6 kDa) micelles): 1.5 mg/mL | solubility (physchem; PEG-PLA (12:6 kDa) micelles in water, aqueous with cosolvent or surfactant or cyclodextrin): ~1500 µg/mL (≈ 2560 µM) | Renal clearance (CLrenal) [8]: increased | hepatic clearance (CLhepatic) [8]: decreased | maximum tolerated dose [9]: 100-200 mg/m^2/day | drug level in water ([10]; analyte 17-AAG): 3900 ± 280 µg/mL

CO[C@H]1/C=C\C=C(/C)C(=O)NC2=CC(=O)C(NCCN(C)C)=C(C[C@@H](C)C[C@H](OC)[C@H](O)[C@@H](C)/C=C(\C)[C@@H]1OC(N)=O)C2=O [17-DMAG, 17-dimethylamino-ethylamino-17-demethoxygeldanamycin]
maximum tolerated dose [9]: 8 mg/m^2/day

CC(=O)O[C@@]12CO[C@@H]1C[C@H](O)[C@@]1(C)C(=O)[C@H](O)C3=C(C)[C@@H](OC(=O)[C@H](O)[C@@H](NC(=O)OC(C)(C)C)c4ccccc4)C[C@@](O)([C@@H](OC(=O)c4ccccc4)[C@H]21)C3(C)C [Docetaxel]
% drug loading (wt. drug(s)/wt. polymer) [1]: 14.2 ± 1.5% and 11.5 ± 0.5% | % drug loading (wt. drug(s)/wt. polymer) ([1]; listed as DCTX): 11.5% | PEG-b-PLA micelle diameter [2]: 37.3 ± 1.7 nm | drug precipitated at 24 hours [3]: ~73% | % w/w drug(s) left @ 24 hr ([3]; analyte docetaxel): 26.8 ± 3.3 % w/w | initial drug level in water ([3]; analyte docetaxel): 4.27 ± 0.44 mg/mL | drug level @ 24 hr in water ([3]; analyte docetaxel): 1140 ± 30 µg/mL | time the micelles were physically stable [3]: approximately 6 hours | first-order rate constant ([4]; release of docetaxel): 0.379 h⁻¹ | intrinsic solubility in water [11]: 5.5 µg/mL | drug level in water ([10]; analyte docetaxel): 4270 ± 440 µg/mL | drug level in water ([10]; analyte docetaxel, listed as DCTX): 4270 µg/mL

COc1cc([C@@H]2c3cc4c(cc3[C@@H](O[C@@H]3O[C@@H]5CO[C@@H](C)O[C@H]5[C@H](O)[C@H]3O)[C@H]3COC(=O)[C@H]23)OCO4)cc(OC)c1O [Etoposide]
% drug loading (wt. drug(s)/wt. polymer) [1]: 11.0 ± 0.5% | % drug loading (wt. drug(s)/wt. polymer) ([1]; listed as ETO): 9.6% | PEG-b-PLA micelle diameter [2]: 32.6 ± 1.0 nm | drug precipitated at 24 hours [3]: ~68% | % w/w drug(s) left @ 24 hr ([3]; analyte etoposide): 32.3 ± 3.4 % w/w | initial drug level in water ([3]; analyte etoposide): 3.31 ± 0.15 mg/mL | drug level @ 24 hr in water ([3]; analyte etoposide): 1070 ± 160 µg/mL | time the micelles were physically stable [3]: approximately 6 hours | first-order rate constant ([4]; release of etoposide): 0.636 h⁻¹ | intrinsic solubility in water [11]: 58 µg/mL | decrease of the IC50 of ETO [12]: 10 fold | drug level in water ([10]; analyte etoposide): 3310 ± 150 µg/mL

CO[C@H]1C[C@@H]2CC[C@@H](C)[C@@](O)(O2)C(=O)C(=O)N2CCCC[C@H]2C(=O)O[C@H]([C@H](C)C[C@@H]2CC[C@@H](O)[C@H](OC)C2)CC(=O)[C@H](C)/C=C(\C)[C@@H](O)[C@@H](OC)C(=O)[C@H](C)C[C@H](C)/C=C/C=C/C=C/1C [Rapamycin]
% drug loading (wt. drug(s)/wt. polymer) [1]: 6.6 ± 1.3% | PEG-b-PLA micelle diameter [2]: 36.9 ± 1.3 nm | % w/w drug(s) left @ 24 hr ([3]; analyte rapamycin): 91.5 ± 0.2 % w/w | initial drug level in water ([3]; analyte rapamycin): 1.84 ± 0.26 mg/mL | drug level @ 24 hr in water ([3]; analyte rapamycin): 1680 ± 230 µg/mL | first-order rate constant ([4]; release of rapamycin): 0.100 h⁻¹ and 0.081 h⁻¹ | IC50 [5, 15]: 590 ± 110 nM | IC50 ([6]; read-out: IC50): 255 ± 37 nM | IC50 [7, 15]: > 100000 nM | loading into micelles [13]: 4% | drug level in water ([10]; analyte rapamycin): 1840 ± 260 µg/mL
